From patent US20260262643A1, “HERBICIDAL BENZOXAZINES” (FMC CORPORATION, priority 2022, published 2026)
Like-named read-outs stand apart in the source and are kept apart here.

Tests used:
[1] = system: corn; assay: Test A preemergence; type: in vivo, Zea mays; conditions: Zea mays, pre-emergence, 240 h; for Corn plant response rating (crop injury, 0 = no effect, 100 = complete kill) at 125 g/ha: 125 g ai/ha; for Corn plant response rating (crop injury, 0 = no effect, 100 = complete kill) at 500 g/ha: 500 g ai/ha
Method in brief: (§1)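 Seeds in loam–sand blend received a directed preemergence soil spray of compound in non-phytotoxic solvent with surfactant; postemergence plants (2–10 cm, one- to two-leaf stage) were sprayed with the same formulation. After 10 days in greenhouse, injury was rated visually versus untreated controls, 0 (no effect) to 100 (complete control).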

[2] = system: foxtail, giant; assay: Test A preemergence; type: in vivo, Setaria faberi; conditions: Setaria faberi, pre-emergence, 240 h, read-out: Plant response rating, Foxtail, Giant; for pest or weed control at 125 g/ha: 125 g ai/ha; for pest or weed control at 500 g/ha: 500 g ai/ha
Method in brief: as §1

[3] = system: kochia; assay: Test A preemergence; type: in vivo, Bassia scoparia; conditions: Bassia scoparia, pre-emergence, 240 h, read-out: Plant response rating, Kochia; for pest or weed control at 125 g/ha: 125 g ai/ha; for pest or weed control at 500 g/ha: 500 g ai/ha
Method in brief: as §1

[4] = system: pigweed, palmer; assay: Test A preemergence; type: in vivo, Amaranthus palmeri; conditions: Amaranthus palmeri, pre-emergence, 240 h, read-out: Plant response rating, Pigweed, Palmer; for pest or weed control at 125 g/ha: 125 g ai/ha; for pest or weed control at 500 g/ha: 500 g ai/ha
Method in brief: as §1

[5] = system: ryegrass, Italian; assay: Test A preemergence; type: in vivo, Lolium multiflorum; conditions: Lolium multiflorum, pre-emergence, 240 h, read-out: Plant response rating, Ryegrass, Italian; for pest or weed control at 125 g/ha: 125 g ai/ha; for pest or weed control at 500 g/ha: 500 g ai/ha
Method in brief: as §1

[6] = system: wheat; assay: Test A preemergence; type: in vivo, Triticum aestivum; conditions: Triticum aestivum, pre-emergence, 240 h, read-out: Plant response rating, Wheat; for plant injury at 125 g/ha: 125 g ai/ha; for plant injury at 500 g/ha: 500 g ai/ha
Method in brief: as §1

[7] = system: blackgrass; assay: Test A postemergence; type: in vivo, Alopecurus myosuroides; conditions: Alopecurus myosuroides, post-emergence, 240 h; for pest or weed control at 125 g/ha: 125 g ai/ha; for pest or weed control at 500 g/ha: 500 g ai/ha
Method in brief: as §1

[8] = system: oat, wild; assay: Test A postemergence; type: in vivo, Avena fatua; conditions: Avena fatua, post-emergence, 240 h, postemergence, 10 days, 0 to 100 scale (0 no effect, 100 complete control); for pest or weed control at 500 g/ha: 500 g ai/ha, visual injury, read-out: Plant response rating, Oat, Wild
Method in brief: as §1

[9] = system: ragweed; assay: Test A postemergence; type: in vivo, Ambrosia artemisiifolia; conditions: Ambrosia artemisiifolia, post-emergence, 240 h, postemergence, 10 days, 0 to 100 scale (0 no effect, 100 complete control); for pest or weed control at 500 g/ha: 500 g ai/ha, visual injury, read-out: Plant response rating, Ragweed
Method in brief: as §1

[10] = system: soybean; assay: Test A postemergence; type: in vivo, Glycine max; conditions: Glycine max, post-emergence, 240 h, postemergence, 10 days, 0 to 100 scale (0 no effect, 100 complete control); for plant injury at 500 g/ha: 500 g ai/ha, visual injury, read-out: Plant response rating, Soybean
Method in brief: as §1

[11] = system: wheat; assay: Test A postemergence; type: in vivo, Triticum aestivum; conditions: Triticum aestivum, post-emergence, 240 h, postemergence, 10 days, 0 to 100 scale (0 no effect, 100 complete control); for plant injury at 500 g/ha: 500 g ai/ha, visual injury, read-out: Plant response rating, Wheat
Method in brief: as §1

[12] = system: horseweed; assay: Test A postemergence; type: in vivo, Erigeron canadensis; conditions: Erigeron canadensis, post-emergence, 240 h, postemergence, 10 days, 0 to 100 scale (0 no effect, 100 complete control); for pest or weed control at 125 g/ha: 125 g ai/ha; for pest or weed control at 500 g/ha: 500 g ai/ha
Method in brief: as §1

[13] = system: ducksalad; assay: Test B flooded paddy test; type: in vivo, Heteranthera limosa; conditions: Heteranthera limosa, 312 h, 250 g ai/ha, Flood, 13 days, 0 to 100 scale (0 no effect, 100 complete control); read-out: Plant response rating, Ducksalad
Method in brief: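 Visual scores from 0 (no effect) to 100 (complete kill) were assigned 13 days after treatment by comparison with controls. Seedlings had been treated at two leaves by adding compound to floodwater standing 3 cm deep, kept at that level in the greenhouse.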

[14] = visual injury after 10 days, 0 to 100 scale, 0 is no effect, 100 is complete control
[15] = postemergence, 10 days, visual injury, 0 to 100 scale (0 no effect, 100 complete control), read-out: Plant response rating, Blackgrass
[16] = visual injury, read-out: Plant response rating, Horseweed
[17] = 0 to 100 scale (0 no effect, 100 complete control), 10 days

Compound | Corn plant response rating (crop injury, 0 = no effect, 100 = complete kill) at 125 g/ha [1, 14] | pest or weed control at 125 g/ha [2, 14] | pest or weed control at 125 g/ha [3, 14] | pest or weed control at 125 g/ha [4, 14] | pest or weed control at 125 g/ha [5, 14] | plant injury at 125 g/ha [6, 14] | pest or weed control at 500 g/ha [8] | pest or weed control at 500 g/ha [9] | plant injury at 500 g/ha [10] | plant injury at 500 g/ha [11] | pest or weed control at 500 g/ha [12, 16] | pest or weed control at 250 g/ha [13] | further results
Cc1ccc(-n2ncnc2C)cc1C(=O)N1C[C@H](C)Oc2c(Cl)cccc21 (single isomer, unassigned) [Compound 126] | 0% | 60% | 0% | 20% | 40% | 0% | 50% | 50% | 60% | 30% | 40% | 0% | Corn plant response rating (crop injury, 0 = no effect, 100 = complete kill) at 500 g/ha [1, 14]: 40%; pest or weed control at 500 g/ha [2, 14]: 100%; pest or weed control at 500 g/ha [3, 14]: 0%; pest or weed control at 500 g/ha [4, 14]: 60%; pest or weed control at 500 g/ha [5, 14]: 70%; plant injury at 500 g/ha [6, 14]: 30%; pest or weed control at 125 g/ha ([7]; postemergence, 10 days, 0 to 100 scale (0 no effect, 100 complete control), read-out: Blackgrass plant response rating): 0%; pest or weed control at 500 g/ha [7, 15]: 40%; pest or weed control at 125 g/ha ([8]; 125 g ai/ha, read-out: Oat, Wild plant response rating): 0%; pest or weed control at 125 g/ha ([9]; 125 g ai/ha, read-out: Ragweed plant response rating): 30%; plant injury at 125 g/ha ([10]; 125 g ai/ha, read-out: Soybean plant response rating): 40%; plant injury at 125 g/ha ([11]; 125 g ai/ha, read-out: Wheat plant response rating): 0%; pest or weed control at 125 g/ha ([12]; read-out: Horseweed plant response rating): 0%
Cc1ccc(-n2cnc(C(C)(C)C)n2)cc1C(=O)N1C[C@H](C)Oc2c(Cl)cccc21 [Compound 76, [(2S)-8-Chloro-2,3-dihydro-2-methyl-4H-1,4-benzoxazin-4-yl][5-[3-(1,1-dimethylethyl)-1H-1,2,4-triazol-1-yl]-2-methylphenyl]methanone] | 40% | 90% | 70% | 100% | 100% | 60% | 90% | 60% | 100% | 40% | 80% | 20% | Corn plant response rating (crop injury, 0 = no effect, 100 = complete kill) at 500 g/ha [1, 17]: 50%; pest or weed control at 500 g/ha [2, 17]: 100%; pest or weed control at 500 g/ha [3, 17]: 100%; pest or weed control at 500 g/ha [4, 17]: 100%; pest or weed control at 500 g/ha [5, 17]: 100%; plant injury at 500 g/ha [6, 17]: 90%; pest or weed control at 125 g/ha [7, 15]: 70%; pest or weed control at 500 g/ha ([7]; Postemergence, 0 to 100 scale, read-out: Plant response rating, Blackgrass): 70%; pest or weed control at 125 g/ha [12, 16]: 70%
